Values joined by “and” are separate entries in the source; they are usually repeats but may differ in a detail not shown here. Equal values may be shown once.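 Protocol summary: plate cells (96-well), add compound at 5 concentrations, incubate 48 h, interpolate endpoints linearly. Here, GI50 denotes the concentration required for 50% inhibition of growth. TGI: total growth inhibition.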
Tests used:
Experiment in all cases: NCI tumour cell line growth inhibition, 48 h
[1] = test system: HOP-92 NSCLC
[2] = test system: HT29 colon
[3] = test system: KM12 colon
[4] = test system: MOLT-4 leukemia
[5] = test system: NCI-H460 lung
[6] = test system: OVCAR-5 ovarian
[7] = test system: OVCAR-8 ovarian
[8] = test system: RXF 393 renal
[9] = test system: SW-620 colon
[10] = test system: UACC-62 melanoma

Structure (SMILES)	GI50 [1] [µM]	TGI [1]	GI50 [2] [µM]	TGI [2] [µM]	GI50 [3] [µM]	TGI [3] [µM]	GI50 [4] [µM]	TGI [4]	TGI [5] [µM]	TGI [6] [µM]	GI50 [7] [µM]	GI50 [8] [µM]	TGI [8]	GI50 [9] [µM]	TGI [9] [µM]	GI50 [10] [µM]	TGI [10] [µM]	GI50 [5] [µM]	TGI [7] [µM]	GI50 [6] [µM]
COc1cc2ccc3c4c(OC)cc(OC)c(OC)c4c(=O)n(C)c3c2cc1OC	1.55	16.7 µM and 40.4 µM	1.75	4.77	0.548	2.57	0.591	10.2 µM and 3.79 µM	> 33.5	23.1	0.451	3.44	16.7 µM and > 44.7 µM	1.05	4.43	> 16.7	> 47.3	–	–	–
N#CC(=S)Nc1ccc(Cl)c(Cl)c1	–	9.59 µM	–	55.4	–	> 95.6	–	43.5 µM	> 100	55.9	–	–	52.4 µM	–	> 100	–	34.1	16	> 87.1	–
O=[N+]([O-])c1cc(CCl)ccc1CCl	–	3.37 µM	–	3.22	–	3.25	–	12.6 µM	> 39.3	6.18	–	–	1.65 µM	–	4.54	–	11.4	–	7.17	–
COC(=O)C(C(=O)C(=O)NC1=C(Cl)C(=O)c2ccccc2C1=O)c1csc(-n2nc(-c3ccccc3)cc2-c2ccccc2)n1 (stereo unspecified)	–	> 100 µM	–	> 100	–	> 100	–	> 100 µM	> 100	> 100	–	–	> 100 µM	–	> 100	–	> 100	–	> 100	–
CC(=O)OCc1cc(OC(C)=O)cnc1COC(C)=O	–	> 100 µM	–	> 100	–	> 100	–	> 100 µM	> 100	> 100	–	–	> 100 µM	–	> 100	–	> 100	–	> 100	–
N.N.N.N.N.N.[I-].[Os]	> 100	> 100 µM	> 100	> 100	> 100	> 100	> 100	> 100 µM	> 100	> 100	> 100	> 100	> 100 µM	> 100	> 100	> 100	> 100	> 100	> 100	> 100
Nc1ncnc2c1nc(-c1ccccc1)n2C1OC(CO)C(O)C1O (stereo unspecified)	–	> 100 µM	–	> 100	–	> 100	–	> 100 µM	> 100	> 100	–	–	> 100 µM	–	> 100	–	> 100	–	> 100	–
CN1CCC[C@@H]1CCO[C@](C)(c1ccccc1)c1ccc(Cl)cc1	1.8	8.37 µM	3.06	11.3	7.04	20.2	4.12	18.1 µM	17.1	18.6	10.8	3.48	13.9 µM	5.5	18.8	1.81	3.99	4.94	24.7	5.34
O=C(Nc1n[nH]c2nc(-c3ccco3)ccc12)C1CC1	> 7.9	> 7.9 µM	> 25	> 25	> 25	> 25	> 25	> 25 µM	> 25	> 25	> 25	> 25	> 25 µM	> 25	> 25	> 25	> 25	> 25	> 25	> 25
c1cc(OCCN2CCCCCC2)ccc1CNc1ccc2nc(CCC3CCCCC3)[nH]c2c1	0.836	3.09 µM	1.3	3.49	2.84	9.07	1.69	6.74 µM	4.64	7.33	2.27	1.53	4.4 µM	1.87	4	1.84	3.35	2.06	6.34	2.48
C/C=C/C=N/N(C(=O)c1cc([N+](=O)[O-])cc([N+](=O)[O-])c1)C1=NC(c2ccccc2)C(c2ccccc2)=NN1 (stereo unspecified)	–	62.2 µM	–	> 100	–	> 100	–	> 100 µM	> 100	> 100	–	–	> 100 µM	–	> 100	–	> 100	–	> 100	–
CCN(CC)CCOc1ccc(/C(=C(\C)Cc2ccc(OC)cc2)c2ccc(OC(=O)NCc3ccccc3)cc2)cc1	1.48	3.17 µM	1.89	4.29	1.87	3.89	2.11	5.73 µM	3.37	14.6	2.38	1.65	3.08 µM	1.91	3.59	1.92	3.55	1.84	5.69	3.63
COc1cc(/C=C2\[C@H]3c4c(c(OC)c(C)c(OC)c4OC)C[C@@H](C(=O)N2Cc2ccccc2)N3C(=O)OC(C)C)c(OC)c(C)c1OC	–	> 100 µM	–	> 100	–	> 100	–	> 100 µM	> 100	> 100	–	–	> 100 µM	–	> 100	–	> 100	–	> 100	–
COc1cc2nc(Sc3c([N+](=O)[O-])ncn3C)[nH]c2cc1OC	–	45 µM	–	> 100	–	> 100	–	44.4 µM	> 100	> 100	–	–	43.9 µM	–	> 100	–	75.8	–	58	–
COC(=O)C(C(=O)C(=O)Nc1ccccc1C(C)=O)c1nc2ccc(Cl)cc2[nH]c1=O (stereo unspecified)	–	> 100 µM	–	> 100	–	> 100	–	> 100 µM	> 100	> 100	–	–	> 100 µM	–	> 100	–	> 100	–	> 100	–
O=C(Nc1nccs1)c1cc2c(cc1Cl)Sc1nccn1S2(=O)=O	–	39.4 µM	19.8	46.7	12.4	26.6	19.1	42.1 µM	29.5	46	17.2	18.9	39.7 µM	16.8	42	14.3	27.4	–	37.1	21.7
